Broadly, the AUC(0-inf) is the area under the concentration-time curve extrapolated to infinity. Lower therefore signals low exposure. As usually defined, the MRT inf is the average time that molecules of a dose stay in the body. The term clearance denotes a measure of how efficiently the substance is removed, as volume per time. Broadly, the half-life is the time in which the quantity being followed falls by half. Read a high half-life as slow decline. As usually defined, the IC50 is the point on the concentration scale where inhibition reaches its midpoint. The low end stands for greater potency in that assay, the high end for weaker potency in that assay.

The nature of series [1]: Mouse Pharmacokinetic Studies. Format: in vivo. Particulars: male BALB/c mice, 3 mg/kg IV tail bolus, plasma. As for the experimental part: Samples were obtained from 3 male BALB/c mice at staggered time points. Each mouse was given a tail bolus injection of 3 mg/kg injection of Compound 70 formulated as an IV solution with DMSO: PEG400: Aqueous solution with 20% HP-β-CD (5:30:65, v:v:v) (adjusted by 1N HCl). Blood samples (collected into lithium heparin tubes) were obtained at predose, and at 5, 15, 30 min and at 1, 2-, 4-, 8- and 24-hour, post injection. Plasma was separated from blood and stored at −20° C. prior to analysis. Samples were assayed by a LC/MS/MS procedure [AB Sciex API 4000; ACE Excel 5 C4 Column (50 mm*2.1 mm); Mobile Phase A: 5 mM NH4OAc (with 0.05% FA); Mobile Phase B: ACN (with 0.1% FA)]. Pharmacokinetic parameters were obtained from plasma concentrations using the R program—PK Package, Basic Non-Compartmental Pharmacokinetics, Thomas Jaki and Martin J. Wolfsegger Version 1.3-3, Jan. 6, 2016.

Series [2] relates to Z-138 cells. As to the kind of experiment: Z138 Cell Proliferation Assay. The series is classed as cell-based. Particulars: Z-138 human mantle cell lymphoma cells, 72 hours, CTG readout. As for the experimental part: Human Mantle Cell Lymphoma
Z-138 cells were plated in a 96-well plate in IMDM medium containing 10% Horse Serum and PenStrep at a density of 10,000 cells/well. The plates were incubated at 37° C. in a humidified, 5% CO2 incubator. The next day, serially diluted compounds were added in duplicates for 72 hours. Compounds were tested at 10, 2.5, 0.625, 0.156, 0.039, 0.010 0.002 and 0 uM final concentrations. After 72 hours of compound addition, […] of Promega's CTG assay reagent was added and incubated at room temperature for 10 minutes. Chemiluminescence was read using a GloMax Discover instrument.

Series [3] has as its target PRMT5 (Homo sapiens (Human), UniProt O14744). As to the kind of experiment: PRMT5 Chemiluminescent Assay. Particulars: PRMT5 chemiluminescent assay kit (BPS Bioscience), histone H4 peptide substrate, eight-point dose response. The series is classed as biochemical. As for the experimental part: The PRMT5 activity is measured by using “PRMT5 Chemiluminescent Assay Kit” from BPS Bioscience, Catalog Number 52002L as per the instructions of the manufacturer. Briefly, the PRMT5 enzyme is incubated with S-adenosylmethionine in a 96-well plate precoated with histone H4 peptide substrate. Next, a highly specific antibody that recognizes methylated R3 residue of Histone H4 is added followed by a horseradkish peroxidase-labeled (HRP-labeled) secondary antibody. Detection is done by the addition of the HRP substrate to produce chemiluminescence that can be measured quantitatively.
Compounds were serially diluted 3-fold and dosed from 10 uM down to 0 uM. Compounds were tested in duplicates to generate an eight-point dose response for the calculation of their IC50s.

Bounds are passed on as bounds.

PRMT5, sequence (O14744 2-637): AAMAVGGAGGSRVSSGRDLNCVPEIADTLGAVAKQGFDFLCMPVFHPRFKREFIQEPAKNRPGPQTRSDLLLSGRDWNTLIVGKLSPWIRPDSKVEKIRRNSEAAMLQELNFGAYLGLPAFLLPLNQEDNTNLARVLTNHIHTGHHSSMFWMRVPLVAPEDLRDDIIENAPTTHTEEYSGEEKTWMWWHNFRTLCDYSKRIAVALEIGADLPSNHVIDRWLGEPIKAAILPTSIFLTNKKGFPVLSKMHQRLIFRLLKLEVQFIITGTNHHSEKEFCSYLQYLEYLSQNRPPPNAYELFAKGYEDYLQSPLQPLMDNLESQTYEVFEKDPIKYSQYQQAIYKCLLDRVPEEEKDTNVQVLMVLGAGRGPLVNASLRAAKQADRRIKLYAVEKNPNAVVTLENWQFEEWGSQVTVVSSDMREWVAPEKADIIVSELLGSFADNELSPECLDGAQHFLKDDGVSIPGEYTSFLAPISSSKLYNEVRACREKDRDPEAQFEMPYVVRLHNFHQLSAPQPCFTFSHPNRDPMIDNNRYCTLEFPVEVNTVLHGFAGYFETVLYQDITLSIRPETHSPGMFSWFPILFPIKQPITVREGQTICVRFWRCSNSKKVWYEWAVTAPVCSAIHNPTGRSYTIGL
PRMT5, sequence (Q9BQA1 2-342 partner): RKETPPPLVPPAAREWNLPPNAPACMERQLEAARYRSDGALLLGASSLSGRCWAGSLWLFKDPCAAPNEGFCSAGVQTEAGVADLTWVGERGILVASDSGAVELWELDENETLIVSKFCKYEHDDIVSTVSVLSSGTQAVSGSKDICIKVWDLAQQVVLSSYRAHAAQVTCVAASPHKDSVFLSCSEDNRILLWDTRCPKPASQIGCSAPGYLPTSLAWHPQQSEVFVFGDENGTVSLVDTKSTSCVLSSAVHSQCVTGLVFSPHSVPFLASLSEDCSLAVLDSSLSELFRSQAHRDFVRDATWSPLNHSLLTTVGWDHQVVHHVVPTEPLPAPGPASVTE

In series [1], `CC(C)Cn1c(=O)n(C[C@H](O)CN2CCc3ccccc3C2)c(=O)c2ccc(Br)cc21` [Compound 70, 7-bromo-3-[(2R)-3-(3,4-dihydro-1H-isoquinolin-2-yl)-2-hydroxy-propyl]-1-isobutyl-quinazoline-2,4-dione] had an AUC(0-inf) of 748 ng·h/mL, a C0 of 1520 ng/mL, an MRT inf of 1.22 h and a clearance of 66.9 mL/min/kg. Further, in series [1], the half-life is 1.56 h. For the same compound, in series [1] (read-out: Vss), the Vd worked out at 4.88 L/kg. In series [2], this compound had an IC50 of 673 nM. Besides, the “IC50 Values” in series [3] was below 0.014 μMolar.

On to `O=c1c2ccccc2n(CC2CC2)c(=O)n1C[C@H](O)CN1CCc2ccccc2C1` [Compound 74, 1-(cyclopropylmethyl)-3-[(2R)-3-(3,4-dihydro-1H-isoquinolin-2-yl)-2-hydroxy-propyl]quinazoline-2,4-dione], for which the IC50 in series [2] was determined as 2940 nM. For the same compound, the “IC50 Values” in series [3] was below 0.014 μMolar.

On to `O=c1c2ccc(Cl)cc2n(CC2CC2)c(=O)n1C[C@H](O)CN1CCc2ccccc2C1` [Compound 78, 7-chloro-1-(cyclopropylmethyl)-3-[(2R)-3-(3,4-dihydro-1H-isoquinolin-2-yl)-2-hydroxy-propyl]quinazoline-2,4-dione], for which the values for the IC50 in series [2] and in series [3] were 1950 nM and 12 nM, respectively.

Consider `O=c1c2ccccc2n(CC(F)F)c(=O)n1C[C@H](O)CN1CCc2ccccc2C1` [Compound 79, 1-(2,2-difluoroethyl)-3-[(2R)-3-(3,4-dihydro-1H-isoquinolin-2-yl)-2-hydroxy-propyl]quinazoline-2,4-dione], for which the IC50 in series [2] is 2850 nM; in series [3], 29 nM.

Take `O=c1c2ccc(Br)cc2n(CC2CC2)c(=O)n1C[C@H](O)CN1CCc2ccccc2C1` [Compound 80, 7-bromo-1-(cyclopropylmethyl)-3-[(2R)-3-(3,4-dihydro-1H-isoquinolin-2-yl)-2-hydroxy-propyl]quinazoline-2,4-dione]: the IC50 in series [2] was determined as 1120 nM; in series [3], 9 nM.

As to `COc1ccc(-c2ccc3c(=O)n(C[C@H](O)CN4CCc5ccccc5C4)c(=O)n(CC4CC4)c3c2)cn1` [Compound 91, 1-(cyclopropylmethyl)-3-[(2R)-3-(3,4-dihydro-1H-isoquinolin-2-yl)-2-hydroxy-propyl]-7-(6-methoxy-3-pyridyl)quinazoline-2,4-dione], the IC50 in series [2] was 1930 nM; in series [3], 43 nM.

As to `O=c1c2ccccc2n(CC2CCC2)c(=O)n1C[C@H](O)CN1CCc2ccccc2C1` [Compound 92, 1-(cyclobutylmethyl)-3-[(2R)-3-(3,4-dihydro-1H-isoquinolin-2-yl)-2-hydroxy-propyl]quinazoline-2,4-dione], the IC50 in series [2] worked out at 3630 nM; in series [3] it was 36 nM.

Take `O=c1c2cc(-c3ccc(F)cc3)ccc2n(CC(F)F)c(=O)n1C[C@H](O)CN1CCc2ccccc2C1` [Compound 94, 1-(2,2-difluoroethyl)-3-[(2R)-3-(3,4-dihydro-1H-isoquinolin-2-yl)-2-hydroxy-propyl]-6-(4-fluorophenyl)quinazoline-2,4-dione]: the IC50 is 10000 nM in series [2] and 45 nM in series [3].

In series [3], `CC(C)Cn1c(=O)n(C[C@H](O)CN2CCc3ccccc3C2)c(=O)c2ccccc21` [Compound 102, 3-[(2R)-3-(3,4-dihydro-1H-isoquinolin-2-yl)-2-hydroxy-propyl]-1-isobutyl-quinazoline-2,4-dione] yielded an IC50 of 71 nM.

On to `O=c1c2ccccc2n(CC2CCOCC2)c(=O)n1CC(O)CN1CCc2ccccc2C1` (stereo not drawn) [Compound 105, 3-[3-(3,4-dihydro-1H-isoquinolin-2-yl)-2-hydroxy-propyl]-1-(tetrahydropyran-4-ylmethyl)quinazoline-2,4-dione], for which, in series [3], the midpoint of inhibition, the IC50, lay at 903 nM.

These data come from patent US20250084060A1, “PRMT5 INHIBITORS AND METHODS OF TREATMENT” (HANGZHOU UNOGEN BIOTECH, LTD., priority 2022, published 2025).
